Measured values from PMC3914206.

Tests used:
Format in all cases: binding
Settings in all cases: Compound Concentration 10 µM
panel of 442 kinases [1] = target: T1, panel of 442 kinases (Homo sapiens, UniProt P51617)
T1 construct: purchased KINOMEscan
Text: (§1) We assessed the selectivity of members of this scaffold using the KINOMEscan methodology across a near comprehensive panel of 442 kinases [[18,27]].

panel of 442 kinases [2] = target: T2, panel of 442 kinases (Homo sapiens, UniProt Q9UF33)
T2 sequence (Q9UF33 23-1036): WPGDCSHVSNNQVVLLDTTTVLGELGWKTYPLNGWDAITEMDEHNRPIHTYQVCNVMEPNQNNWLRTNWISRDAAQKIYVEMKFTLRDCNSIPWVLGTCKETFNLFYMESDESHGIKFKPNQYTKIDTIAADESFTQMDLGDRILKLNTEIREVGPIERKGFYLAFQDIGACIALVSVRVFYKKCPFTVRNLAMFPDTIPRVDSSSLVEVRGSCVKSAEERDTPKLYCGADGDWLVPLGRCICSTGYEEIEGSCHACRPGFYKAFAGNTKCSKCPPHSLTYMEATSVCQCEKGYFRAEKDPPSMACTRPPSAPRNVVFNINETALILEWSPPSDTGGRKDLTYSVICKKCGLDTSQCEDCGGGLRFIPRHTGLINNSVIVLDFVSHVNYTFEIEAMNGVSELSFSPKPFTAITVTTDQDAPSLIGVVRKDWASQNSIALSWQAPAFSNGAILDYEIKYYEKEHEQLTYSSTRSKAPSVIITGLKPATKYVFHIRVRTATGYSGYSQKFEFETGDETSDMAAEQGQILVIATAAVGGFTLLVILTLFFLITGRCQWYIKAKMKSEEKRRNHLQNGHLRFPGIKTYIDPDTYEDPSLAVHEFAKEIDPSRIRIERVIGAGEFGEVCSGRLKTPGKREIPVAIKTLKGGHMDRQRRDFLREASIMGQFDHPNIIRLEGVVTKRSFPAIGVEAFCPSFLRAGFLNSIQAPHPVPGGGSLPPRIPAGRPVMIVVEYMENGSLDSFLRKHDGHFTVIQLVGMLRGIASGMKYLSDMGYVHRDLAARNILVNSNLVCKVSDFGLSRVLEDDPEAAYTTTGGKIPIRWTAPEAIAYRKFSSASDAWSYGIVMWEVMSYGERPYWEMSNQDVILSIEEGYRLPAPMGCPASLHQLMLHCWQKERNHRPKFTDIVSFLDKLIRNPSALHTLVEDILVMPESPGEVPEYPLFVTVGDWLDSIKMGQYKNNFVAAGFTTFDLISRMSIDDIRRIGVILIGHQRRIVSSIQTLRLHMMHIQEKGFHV
Text: as §1

panel of 442 kinases [3] = target: T3, panel of 442 kinases (Homo sapiens, UniProt P22607, G697C)
T3 construct: purchased KINOMEscan
Text: as §1

T3 sequence (P22607 23-806 G697C): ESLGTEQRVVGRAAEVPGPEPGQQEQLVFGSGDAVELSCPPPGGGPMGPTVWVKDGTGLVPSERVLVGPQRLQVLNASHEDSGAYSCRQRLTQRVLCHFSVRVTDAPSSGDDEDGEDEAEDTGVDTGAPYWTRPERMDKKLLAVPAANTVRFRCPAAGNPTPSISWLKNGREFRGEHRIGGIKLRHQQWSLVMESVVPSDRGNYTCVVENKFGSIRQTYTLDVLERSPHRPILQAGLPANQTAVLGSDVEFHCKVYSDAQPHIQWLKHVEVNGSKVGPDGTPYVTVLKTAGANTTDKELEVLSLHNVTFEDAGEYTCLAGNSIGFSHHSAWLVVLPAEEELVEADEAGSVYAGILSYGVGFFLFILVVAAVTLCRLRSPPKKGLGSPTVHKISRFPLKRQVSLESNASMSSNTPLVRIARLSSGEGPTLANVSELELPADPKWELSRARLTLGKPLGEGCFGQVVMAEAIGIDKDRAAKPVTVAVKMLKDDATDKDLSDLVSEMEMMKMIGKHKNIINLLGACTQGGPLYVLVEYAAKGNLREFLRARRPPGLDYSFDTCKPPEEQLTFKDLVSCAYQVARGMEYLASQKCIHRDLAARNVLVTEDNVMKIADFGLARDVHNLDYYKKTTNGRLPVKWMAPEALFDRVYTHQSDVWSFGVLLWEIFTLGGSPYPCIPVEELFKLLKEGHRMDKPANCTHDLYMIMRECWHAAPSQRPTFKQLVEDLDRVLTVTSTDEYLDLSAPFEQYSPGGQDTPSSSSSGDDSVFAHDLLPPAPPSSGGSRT
T1 sequence (P51617 whole entry): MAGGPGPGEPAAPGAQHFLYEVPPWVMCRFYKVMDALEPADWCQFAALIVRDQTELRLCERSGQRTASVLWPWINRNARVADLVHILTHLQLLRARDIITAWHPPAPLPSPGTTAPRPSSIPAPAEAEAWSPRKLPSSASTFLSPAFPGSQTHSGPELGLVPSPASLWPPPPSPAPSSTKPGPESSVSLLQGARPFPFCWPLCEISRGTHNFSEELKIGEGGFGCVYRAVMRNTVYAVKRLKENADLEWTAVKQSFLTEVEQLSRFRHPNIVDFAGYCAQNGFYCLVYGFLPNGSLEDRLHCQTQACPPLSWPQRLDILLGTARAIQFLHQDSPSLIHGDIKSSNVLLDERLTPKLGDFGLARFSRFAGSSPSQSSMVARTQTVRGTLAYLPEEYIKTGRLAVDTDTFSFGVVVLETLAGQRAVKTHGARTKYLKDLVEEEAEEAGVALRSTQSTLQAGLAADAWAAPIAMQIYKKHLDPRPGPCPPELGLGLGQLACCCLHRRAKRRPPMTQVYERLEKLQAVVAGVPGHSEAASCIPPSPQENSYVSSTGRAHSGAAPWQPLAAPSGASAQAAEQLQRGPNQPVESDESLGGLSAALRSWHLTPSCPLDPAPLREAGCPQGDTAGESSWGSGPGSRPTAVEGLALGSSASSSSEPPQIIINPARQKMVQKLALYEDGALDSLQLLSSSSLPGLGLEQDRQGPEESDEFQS

Row | Compound | KINOMEscan: IRAK1 (panel of 442 kinases [1]) | KINOMEscan: EPHA6 (panel of 442 kinases [2]) | KINOMEscan: FGFR3(G697C) (panel of 442 kinases [3])
1 | CCOc1cc(C(=O)N2CCC(N3CCN(C)CC3)CC2)ccc1Nc1ncc2c(n1)N(C1CCCC1)c1ccccc1C(=O)N2C [Compound 26] | 100 | 100 | 100
2 | COc1cc(C(=O)N2CCC(N3CCN(C)CC3)CC2)ccc1Nc1ncc2c(n1)N(C1CCCC1)c1ccccc1C(=O)N2C [Compound 25, 11-cyclopentyl-2-((2-methoxy-4-(4-(4-methylpiperazin-1-yl)piperidine-1-carbonyl)phenyl)amino)-5-methyl-5H-benzo[e]pyrimido[5,4-b][1,4]diazepin-6(11H)-one] | 89 | 100 | 100
3 | COc1cc(C(=O)N2CCC(N3CCN(C)CC3)CC2)ccc1Nc1ncc2c(n1)N1CCc3cccc(c31)C(=O)N2C [Compound 24] | 95 | 97 | 80
4 | COc1cc(C(=O)N2CCC(N3CCN(C)CC3)CC2)ccc1Nc1ncc2c(n1)N(C)c1ccccc1C(=O)N2C [15 (LRRK2-IN-1)] | 100 | 89 | 85
